Reference: ChEMBL document CHEMBL1201862, “PubChem BioAssay data set” (2004)
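48-hour exposure; five concentrations; linearly interpolated endpoints. GI50 is the concentration that inhibits growth by half.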 Calls of active or inactive are those of the source. Rule as the data show it: active = GI50 up to about 1.1 µM and inactive = higher.

Tests used:
Experiment in all cases: NCI-60 cell line screen, 48 h
SK-MEL-2 = test system: SK-MEL-2
SF-268 = test system: SF-268
RPMI-8226 = test system: RPMI-8226
HCC 2998 = test system: HCC 2998
MDA-N = test system: MDA-N
MOLT-4 = test system: MOLT-4
ACHN = test system: ACHN
U-251 = test system: U-251
SNB-19 = test system: SNB-19
HCT-116 = test system: HCT-116
COLO 205 = test system: COLO 205
HOP-92 = test system: HOP-92
NCI-H460 = test system: NCI-H460
LOX IMVI = test system: LOX IMVI
SF-539 = test system: SF-539
OVCAR-8 = test system: OVCAR-8
A498 = test system: A498
Malme-3M = test system: Malme-3M
786-0 = test system: 786-0
OVCAR-4 = test system: OVCAR-4

SMILES | GI50 (SK-MEL-2) | GI50 (SF-268) | GI50 (RPMI-8226) | GI50 (HCC 2998) | GI50 (MDA-N) | GI50 (MOLT-4) | GI50 (ACHN) | GI50 (U-251) | GI50 (SNB-19) | GI50 (HCT-116) | GI50 (COLO 205) | GI50 (HOP-92) | GI50 (NCI-H460) | GI50 (LOX IMVI) | GI50 (SF-539) | GI50 (OVCAR-8) | GI50 (A498) | GI50 (Malme-3M) | GI50 (786-0) | GI50 (OVCAR-4)
COc1cc(/C=C2\N=C(c3ccccc3)N(c3nc4c(OC)ccc(OC)c4s3)C2=O)ccc1O | 35.5 µM (inactive) | 39.1 µM (inactive) | 23.1 µM (inactive) | 33.8 µM (inactive) | 24.1 µM (inactive) | 16.7 µM (inactive) | 59.2 µM (inactive) | 29.9 µM (inactive) | > 100 µM (inactive) | 95.9 µM (inactive) | 96.8 µM (inactive) | 35.6 µM (inactive) | 51.4 µM (inactive) | 24 µM (inactive) | 57.9 µM (inactive) | 30.8 µM (inactive) | > 100 µM (inactive) | 85.7 µM (inactive) | 39.4 µM (inactive) | –
C[C@]12CCC(=O)C=C1CC[C@@H]1[C@@H]2CC[C@]2(C)C(=O)/C(=C/c3ccc([N+](=O)[O-])cc3)C[C@@H]12 | 62.5 µM (inactive) | 83.6 µM (inactive) | 5.52 µM (inactive) | 63.2 µM (inactive) | 6.31 µM (inactive) | 2.77 µM (inactive) | 2.36 µM (inactive) | – | > 100 µM (inactive) | 9.57 µM (inactive) | 7.41 µM (inactive) | > 100 µM (inactive) | 9.57 µM (inactive) | 37.9 µM (inactive) | 79.3 µM (inactive) | 45.8 µM (inactive) | 2.3 µM (inactive) | 70.8 µM (inactive) | 18.6 µM (inactive) | –
COC1=NC(NC2OCC(O)C(O)C2O)=C(NC(C)=O)CN1C (stereo not drawn) | > 100 µM (inactive) | > 100 µM (inactive) | > 100 µM (inactive) | > 100 µM (inactive) | > 100 µM (inactive) | > 100 µM (inactive) | > 100 µM (inactive) | – | > 100 µM (inactive) | > 100 µM (inactive) | > 100 µM (inactive) | > 100 µM (inactive) | > 100 µM (inactive) | > 100 µM (inactive) | > 100 µM (inactive) | > 100 µM (inactive) | > 100 µM (inactive) | > 100 µM (inactive) | > 100 µM (inactive) | > 100 µM (inactive)
CC1=CC(=O)c2ccc3c4ccccc4n(C)c3c2C1=O | 16.2 µM (inactive) | > 70 µM (inactive) | > 41.2 µM (inactive) | > 96.4 µM (inactive) | 16.6 µM (inactive) | 19.4 µM (inactive) | 55.6 µM (inactive) | 49 µM (inactive) | 39.1 µM (inactive) | > 88.5 µM (inactive) | > 85.9 µM (inactive) | > 46.5 µM (inactive) | 29.4 µM (inactive) | – | > 100 µM (inactive) | 58.9 µM (inactive) | 83.6 µM (inactive) | 6.67 µM (inactive) | 56 µM (inactive) | 74 µM (inactive)
C=C(Br)C(Br)(CCl)CCC(Cl)C(C)C.C=C(Cl)C(Br)(CCl)CCC(Cl)C(C)C (stereo not drawn) | 1.47 µM (inactive) | 1.75 µM (inactive) | 0.208 µM (active) | 3.01 µM (inactive) | 1.71 µM (inactive) | 0.439 µM (active) | 1.74 µM (inactive) | 1.75 µM (inactive) | 3 µM (inactive) | 1.75 µM (inactive) | 2.13 µM (inactive) | 1.87 µM (inactive) | 1.57 µM (inactive) | 0.299 µM (active) | 1.94 µM (inactive) | – | 17.7 µM (inactive) | 2.49 µM (inactive) | 1.36 µM (inactive) | 1.94 µM (inactive)
CC(=O)NC1C(OCc2ccccc2)OC(CO)C(O)C1OC(C)C(=O)NC(C(=O)NC(CCC(=O)NCCCC(=O)Nc1ccc2c(c1)CN1C(=O)c3ccccc3C1=N2)C(N)=O)C(C)C (stereo not drawn) | > 100 µM (inactive) | > 100 µM (inactive) | > 100 µM (inactive) | > 100 µM (inactive) | > 100 µM (inactive) | > 100 µM (inactive) | > 100 µM (inactive) | > 100 µM (inactive) | > 100 µM (inactive) | > 100 µM (inactive) | > 100 µM (inactive) | > 100 µM (inactive) | > 100 µM (inactive) | > 100 µM (inactive) | > 100 µM (inactive) | – | > 100 µM (inactive) | > 100 µM (inactive) | > 100 µM (inactive) | > 100 µM (inactive)
COc1cc2cc(C(=O)N3CC(CCl)c4ccc(N(C)C)cc43)[nH]c2c(OC)c1OC (stereo not drawn) | 0.063 µM (active) | 0.0678 µM (active) | 0.043 µM (active) | 0.0303 µM (active) | 0.185 µM (active) | 0.048 µM (active) | 0.0199 µM (active) | 0.0897 µM (active) | 0.304 µM (active) | 0.0542 µM (active) | 0.0851 µM (active) | 0.0861 µM (active) | 0.0269 µM (active) | 0.0755 µM (active) | 0.0559 µM (active) | 0.0989 µM (active) | 0.0153 µM (active) | 0.109 µM (active) | 0.0361 µM (active) | 0.124 µM (active)
